# Results: patent US4311842A, “Cephalosporin compounds” (Yamanouchi Pharmaceutical Co., Ltd., priority 1978, dated 1982)
# Legend:
# Format in all cases: cell-based
# [1] = system: Staphylococcus aureus ATCC 6538P; assay: Antibacterial activity, minimum inhibitory concentration, Staphylococcus aureus ATCC 6538P; settings: ATCC6538P
# Source text: (§1) The antibacterial activity (the minimum inhibitory concentration) of the compounds of this invention shown by formula I is shown in the following table in comparison to those of known compounds having similar structures, 7-[2-amino-2-(2-aminothiazol-4-yl)acetamido]-3-(1-methyl-tetrazol-5-yl)thiomethyl-Δ^3 -cephem-4-carboxylic acid (Compound A) having the following formula [drawing 8] and 7-[2-amino-2-(2-aminothiazol-4-yl)acetamido]cephalosporanic acid Compound B) having the following formula; [drawing 9]
# Vibrio Hy 133 = assay: Antibacterial activity, minimum inhibitory concentration, Vibrio Hy 133; settings: HY133
# Source text: as §1
# [2] = system: Staphylococcus aureus Oonuma; assay: Antibacterial activity, minimum inhibitory concentration, Staphylococcus aureus Oonuma; settings: Staphylococcus aureus Oonuma (penicillin, Streptomycin-resistant)
# Source text: as §1
# Corynebacterium xerosis = assay: Antibacterial activity, minimum inhibitory concentration, Corynebacterium xerosis
# Source text: as §1
# [3] = system: Staphylococcus aureus 209P; assay: Antibacterial activity, minimum inhibitory concentration, Staphylococcus aureus 209P
# Source text: as §1
# Proteus vulgaris OXK US = assay: Antibacterial activity, minimum inhibitory concentration, Proteus vulgaris OXK US
# Source text: as §1
# [4] = system: Bacillus subtilis ATCC 6633; assay: Antibacterial activity, minimum inhibitory concentration, Bacillus subtilis ATCC 6633; settings: ATCC6633
# Source text: as §1
# [5] = system: Proteus mirabilis IFM OM-9; assay: Antibacterial activity, minimum inhibitory concentration, Proteus mirabilis IFM OM-9; settings: IFMOM9
# Source text: as §1
# [6] = system: Pseudomonas aeruginosa NCTC 10490; assay: Antibacterial activity, minimum inhibitory concentration, Pseudomonas aeruginosa NCTC 10490; settings: NCTC10490
# Source text: as §1
# [7] = system: Salmonella enteritidis 1891; assay: Antibacterial activity, minimum inhibitory concentration, Salmonella enteritidis 1891; settings: Salmonella enterica
# Source text: as §1
# [8] = system: Pseudomonas aeruginosa 99; assay: Antibacterial activity, minimum inhibitory concentration, Pseudomonas aeruginosa 99; settings: Pseudomonas aeruginosa 99 (Gentamicin-resistant)
# Source text: as §1
# [9] = system: Pseudomonas aeruginosa ATCC 8689; assay: Antibacterial activity, minimum inhibitory concentration, Pseudomonas aeruginosa ATCC 8689; settings: ATCC8689
# Source text: as §1
SMILES,MIC [1],MIC (Vibrio Hy 133),MIC [2],MIC (Corynebacterium xerosis),MIC [3],MIC (Proteus vulgaris OXK US),MIC [4],MIC [5],MIC [6],MIC [7],MIC [8],MIC [9]
"CC(=O)OCC1=C(C(=O)O)N2C(=O)C(NC(=O)C(NC(=O)c3cnc(C)cc3O)c3cscn3)C2SC1 (racemic) [Example 1, DL-7-[2-(4-hydroxy-6-methylnicotinamido)-2-(thiazol-4-yl)acetamido]-cephalosporanic acid]",3.13 µg/mL,0.78 µg/mL,6.25 µg/mL,3.13 µg/mL,1.56 µg/mL,1.56 µg/mL,3.13 µg/mL,3.13 µg/mL,1.56 µg/mL,3.13 µg/mL,25 µg/mL,25 µg/mL
"CC(=O)OCC1=C(C(=O)O)N2C(=O)C(NC(=O)C(NC(=O)c3cnc(C)cc3O)c3csc(N)n3)C2SC1 (racemic) [Example 2, DL-7-[2-(4-hydroxy-6-methylnicotinamido)-2-(2-aminothiazol-4-yl)acetamido]cephalosporanic acid]",6.25 µg/mL,0.78 µg/mL,12.5 µg/mL,6.25 µg/mL,3.13 µg/mL,0.78 µg/mL,6.25 µg/mL,0.39 µg/mL,1.56 µg/mL,0.78 µg/mL,25 µg/mL,50 µg/mL
"CC(=O)OCC1=C(C(=O)O)N2C(=O)C(NC(=O)C(NC(=O)c3csccc3=O)c3csc(N)n3)C2SC1 (racemic) [Example 3, DL-7-[2-(2-aminothiazol-4-yl)-2-(4-oxo-4H-thiopyran-3-carboxamido)-acetamido]cephalosporanic acid]",3.13 µg/mL,0.78 µg/mL,6.25 µg/mL,3.13 µg/mL,1.56 µg/mL,1.56 µg/mL,3.13 µg/mL,0.78 µg/mL,25 µg/mL,0.39 µg/mL,100 µg/mL,100 µg/mL
"CC(=O)OCC1=C(C(=O)O)N2C(=O)C(NC(=O)C(NC(=O)c3csccc3=O)c3cscn3)C2SC1 (racemic) [Example 4, DL-7-[2-(4-oxo-4H-thiopyran-3-carboxamido)-2-(thiazol-4-yl)acetamido]cephalosporanic acid]",1.56 µg/mL,0.78 µg/mL,6.25 µg/mL,1.56 µg/mL,1.56 µg/mL,3.13 µg/mL,1.56 µg/mL,6.25 µg/mL,6.25 µg/mL,6.25 µg/mL,100 µg/mL,100 µg/mL
"Cn1nnnc1SCC1=C(C(=O)O)N2C(=O)C(NC(=O)C(NC(=O)c3csccc3=O)c3cscn3)C2SC1 (racemic) [Example 5, DL-7-[2-(4-oxo-4H-thiopyran-3-carboxamido)-2-(thiazol-4-yl)acetamido]-3-(1-methyltetrazol-5-yl)thiomethyl-Δ^3-cephem-4-carboxylic acid]",1.56 µg/mL,0.39 µg/mL,6.25 µg/mL,3.13 µg/mL,0.78 µg/mL,1.56 µg/mL,3.13 µg/mL,1.56 µg/mL,1.56 µg/mL,0.78 µg/mL,50 µg/mL,50 µg/mL
"Cn1nnnc1SCC1=C(C(=O)O)N2C(=O)C(NC(=O)C(NC(=O)c3csccc3=O)c3csc(N)n3)C2SC1 (racemic) [Example 6, DL-7-[2-(2-aminothiazol-4-yl)-2-(4-oxo-4H-thiopyran-3-carboxyamido)acetamido]-3-(1-methyltetrazol-5-yl)thiomethyl-Δ^3-cephem-4-carboxylic acid]",1.56 µg/mL,0.78 µg/mL,3.13 µg/mL,1.56 µg/mL,0.78 µg/mL,0.19 µg/mL,1.56 µg/mL,0.09 µg/mL,0.78 µg/mL,0.19 µg/mL,50 µg/mL,50 µg/mL
"Cc1cc(O)c(C(=O)NC(C(=O)NC2C(=O)N3C(C(=O)O)=C(CSc4nnnn4C)CSC23)c2csc(N)n2)cn1 (racemic) [Example 7, DL-7-[2-(2-aminothiazol-4-yl)-2-(4-hydroxy-6-methylnicotinamido)acetamido]-3-(1-methyltetrazol-5-yl)thiomethyl-Δ^3-cephem-4-carboxylic acid]",1.56 µg/mL,0.78 µg/mL,6.25 µg/mL,6.25 µg/mL,1.56 µg/mL,0.19 µg/mL,3.13 µg/mL,0.09 µg/mL,0.39 µg/mL,0.09 µg/mL,12.5 µg/mL,25 µg/mL
"Cc1cc(O)c(C(=O)NC(C(=O)NC2C(=O)N3C(C(=O)O)=C(CSc4nnnn4C)CSC23)c2cscn2)cn1 (racemic) [Example 8, DL-7-[2-(4-hydroxy-6-methylnicotinamido)-2-(thiazol-4-yl)-acetamido]-3-(1-methyltetrazol-5-yl)thiomethyl-Δ^3-cephem-4-carboxylic acid]",1.56 µg/mL,0.78 µg/mL,6.25 µg/mL,3.13 µg/mL,1.56 µg/mL,1.56 µg/mL,3.13 µg/mL,1.56 µg/mL,0.78 µg/mL,0.78 µg/mL,12.5 µg/mL,25 µg/mL
"Cn1nnnc1SCC1=C(C(=O)O)N2C(=O)C(NC(=O)C(N)c3csc(N)n3)C2SC1 (stereo not drawn) [Compound A, 7-[2-amino-2-(2-aminothiazol-4-yl)acetamido]-3-(1-methyl-tetrazol-5-yl)thiomethyl-Δ^3-cephem-4-carboxylic acid, reference compound]",25 µg/mL,6.25 µg/mL,100 µg/mL,25 µg/mL,12.5 µg/mL,6.25 µg/mL,12.5 µg/mL,1.56 µg/mL,100 µg/mL,0.78 µg/mL,> 100 µg/mL,> 100 µg/mL
"CC(=O)OCC1=C(C(=O)O)N2C(=O)C(NC(=O)C(N)c3csc(N)n3)C2SC1 (stereo not drawn) [Compound B, 7-[2-amino-2-(2-aminothiazol-4-yl)acetamido]cephalosporanic acid, reference compound]",3.13 µg/mL,1.56 µg/mL,12.5 µg/mL,3.13 µg/mL,3.13 µg/mL,3.13 µg/mL,1.56 µg/mL,1.56 µg/mL,> 100 µg/mL,0.78 µg/mL,> 100 µg/mL,> 100 µg/mL
